Legend:
[1] = test system: Ca127 xenograft; assay: Tumorigenicity assay, Ca127 xenograft model; type: in vivo, nude mice; conditions: M-I 30 mg/kg IP once a day, BME 30% in drinking water
Experimental: (§1) JHU029 or Ca127 cells (1.5 10^6) containing 40% Matrigel were injected subcutaneously into the flank of BALB/c athymic nude mice (7-8 weeks old). When the palpable tumor was developed (>60 mm3), mice were divided into three groups randomly, 5 mice in each group. The control group was without any treatment. The BME group received 30% (v/v) BME through drinking water. M-I group received 30 mg/kg dose of M-I once in day, every day. Body weight was monitored, and tumor size was measured using a slide caliper and volume was calculated using the formula 1/2 L X W2. After animal sacrifice tumors were dissected out and snap frozen in liquid nitrogen for further analysis. All the animal experiments were carried out in accordance NIH guidelines, following a protocol approved (1017) by the Institutional Animal Care and Use Committee (IACUC) of Saint Louis University.

[2] = test system: JHU029 xenograft; assay: Tumorigenicity assay, JHU029 xenograft model; type: in vivo, nude mice
Experimental: as §1

[3] = test system: 4T1 (mouse) cells implanted into the mammary fat pad; assay: Orthotopic syngeneic breast cancer mouse model (4T1); type: in vivo, Balb/c mice; conditions: M-I 30 mg/mouse/day ip; pilot study
Experimental: FIG. 12 illustrates 4T1 cells tumor bearing mice were randomly divided into two groups mice (n=4). Starting day of treatment by M-I (red color) or vehicle (control-blue color) graph was marked by up arrow.
The Inventors further evaluated the efficacy of M-I in orthotopic breast cancer mouse models in a pilot study. Syngeneic breast cancer model using 4T1 (mouse) cells implanted into the mammary fat pad of Balb/c mice. Mice were divided into two groups. One group received M-I (30 mg/mouse/day) and the other group received vehicle as a control by ip.

CC(C)=CC(O)CC(C)[C@H]1CC[C@@]2(C)[C@@H]3[C@@H](O)C=C4[C@@H](CC[C@H](O)C4(C)C)[C@]3(C=O)CC[C@]12C (stereo partly drawn) [M-I, (3S, 7S, 8S, 9R, 10R, 13R, 14S, 17R) 3,7-dihydroxy-17-(4-hydroxy-6-methylhept-5-en-2-yl)-4,4,13,14-tetramethyl-2,3,7,8,10,11, 12,15, 16,17-decahydro-1H-cyclopenta[a]phenanthrene-9-carbaldehyde]
reduction of tumor growth [1]: −50%
body weight ([1]; throughout the experiment): increasing body weight
reduction of tumor growth, M-I compared with BME ([2]; M-I 30 mg/kg IP once a day versus BME 30% in drinking water): better effect
tumor volume ([2]; M-I 30 mg/kg IP once a day, BME 30% in drinking water, sacrifice day 32): significantly reduced tumor volume
sudden drop in body weight ([2]; three out of five mice, Day 20, M-I 30 mg/kg IP once a day, weight gained back): −10%
tumor volumes versus vehicle control [3]: significantly reduced

Reference: patent publication US20230226079A1, “METHODS AND COMPOSITIONS FOR TREATMENT OF SOLID TUMORS” (Saint Louis University, priority 2022, published 2023)
